# Counter-ions that a name gives are not always drawn.
# Test: In vitro rat plasma stability assay, formation of tafamidis
# Format: in vitro ADME
# Settings: 37° C., 2 µM test compound
# Protocol: A stability assay in plasma (rat or human) was used to evaluate the ability of a compound provided herein to convert to an active TTR stabilizer. The test compound was added to plasma and incubated at 37° C. in a water bath at a concentration of 2 µM. At each time point (0, 10, 30, 60 and 120 min or 0, 60, 120, 180 and 240 min), stop solution (tolbutamide plus labetalol) was added to precipitate protein and mixed thoroughly. After centrifugation, an aliquot of supernatant was analyzed by LC-MS/MS. The percentage of formation of active agent was calculated at each time point.
row,Formation of tafamidis at 120 min,Structure (SMILES)
1,B (B is ≥25 to <50%),O=C(OC1CCOC1=O)c1ccc2nc(-c3cc(Cl)cc(Cl)c3)oc2c1 (stereo not shown) [Compound 21]
2,D (D is ≥75%),"Cc1oc(=O)oc1COC(=O)c1ccc2nc(-c3cc(Cl)cc(Cl)c3)oc2c1 [Compound 24, (5-methyl-2-oxo-1,3-dioxol-4-yl)methyl 2-(3,5-dichlorophenyl)benzo[d] oxazole-6-carboxylate]"
3,A (A is <25%),"NCCCOC(=O)c1ccc2nc(-c3cc(Cl)cc(Cl)c3)oc2c1 [Compound 25, 3-aminopropyl 2-(3,5-dichlorophenyl)benzo[d]oxazole-6-carboxylate hydrochloride]"
4,A (A is <25%),"C[N+](C)(C)CCOC(=O)c1ccc2nc(-c3cc(Cl)cc(Cl)c3)oc2c1.[Cl-] [Compound 29, 2-((2-(3,5-dichlorophenyl)benzo[d]oxazole-6-carbonyl)oxy)-N,N,N-trimethylethanaminium chloride]"
5,B (B is ≥25 to <50%),"Cc1oc(=O)n(C)c1COC(=O)c1ccc2nc(-c3cc(Cl)cc(Cl)c3)oc2c1 [Compound 30, (3,5-dimethyl-2-oxo-2,3-dihydrooxazol-4-yl)methyl 2-(3,5-dichlorophenyl) benzo[d]oxazole-6-carboxylate]"
6,C (C is ≥50 to <75%),CCN(C)CCOC(=O)c1ccc2nc(-c3cc(Cl)cc(Cl)c3)oc2c1 [Compound 43]
7,C (C is ≥50 to <75%),"C[C@@H](COC(=O)c1ccc2nc(-c3cc(Cl)cc(Cl)c3)oc2c1)N(C)C [Compound 44, (S)-2-(dimethylamino)propyl 2-(3,5-dichlorophenyl)benzo[d] oxazole-6-carboxylate]"
8,C (C is ≥50 to <75%),"C[C@H](COC(=O)c1ccc2nc(-c3cc(Cl)cc(Cl)c3)oc2c1)N(C)C [Compound 45, (R)-2-(dimethylamino)propyl 2-(3,5-dichlorophenyl)benzo[d] oxazole-6-carboxylate]"
9,D (D is ≥75%),"CN(C)CCCCCOC(=O)c1ccc2nc(-c3cc(Cl)cc(Cl)c3)oc2c1 [Compound 51, 5-(dimethylamino)pentyl 2-(3,5-dichlorophenyl)benzo[d] oxazole-6-carboxylate]"
10,D (D is ≥75%),"CN(C)C(CO)COC(=O)c1ccc2nc(-c3cc(Cl)cc(Cl)c3)oc2c1 (stereo not shown) [Compound 55, 2-(dimethylamino)-3-hydroxypropyl 2-(3,5-dichlorophenyl) benzo [d]oxazole-6-carboxylate]"

# The remaining lines, values behind:
row,Structure (SMILES),Formation of tafamidis at 120 min
1,"O=C(OCCC[n+]1ccccc1)c1ccc2nc(-c3cc(Cl)cc(Cl)c3)oc2c1.[Br-] [Compound 3, 1-(3-(2-(3,5-Dichlorophenyl)benzo[d]oxazole-6-carbonyloxy)propyl)-pyridinium bromide]",A (A is <25%)
2,"O=C(OCCC[P+](c1ccccc1)(c1ccccc1)c1ccccc1)c1ccc2nc(-c3cc(Cl)cc(Cl)c3)oc2c1.[Br-] [Compound 4, (3-(2-(3,5-Dichlorophenyl)benzo[d]oxazole-6-carbonyloxy)propyl) triphenylphosphonium bromide]",A (A is <25%)
3,"O=C(OC[C@H]1O[C@@H](O)C(O)[C@H](O)C1O)c1ccc2nc(-c3cc(Cl)cc(Cl)c3)oc2c1 (stereo partly shown) [Compound 5, (3,4,5,6-Tetrahydroxytetrahydro-2H-pyran-2-yl)methyl 2-(3,5-Dichlorophenyl) Benzo[d]oxazole-6-Carboxylate]",A (A is <25%)
4,"CN(C)CCOC(=O)c1ccc2nc(-c3cc(Cl)cc(Cl)c3)oc2c1 [Compound 6, 2-(dimethylamino)ethyl 2-(3,5-dichlorophenyl)benzo-[d]oxazole-6-carboxylate hydrochloride]",D (D is ≥75%)
5,"CN(CCOC(=O)c1ccc2nc(-c3cc(Cl)cc(Cl)c3)oc2c1)C(=O)OC(C)(C)C [Compound 8, 2-((tert-butoxycarbonyl)(methyl)amino)ethyl 2-(3,5-dichlorophenyl) benzo[d] oxazole-6-carboxylate]",D (D is ≥75%)
6,"CNCCOC(=O)c1ccc2nc(-c3cc(Cl)cc(Cl)c3)oc2c1 [Compound 9, 2-(methylamino)ethyl 2-(3,5-dichlorophenyl)benzo[d]oxazole-6-carboxylate hydrochloride]",A (A is <25%)
7,"CC(C)(C)OC(=O)NCCOC(=O)c1ccc2nc(-c3cc(Cl)cc(Cl)c3)oc2c1 [Compound 10, 2-((tert-butoxycarbonyl)amino)ethyl 2-(3,5-dichlorophenyl) benzo [d]oxazole-6-carboxylate]",A (A is <25%)
8,"CC(C)(C)OC(=O)N1CCC(OC(=O)c2ccc3nc(-c4cc(Cl)cc(Cl)c4)oc3c2)CC1 [Compound 12, 1-(tert-butoxycarbonyl)piperidin-4-yl 2-(3,5-dichlorophenyl)benzo [d]oxazole-6-carboxylate]",A (A is <25%)
9,"NCCOC(=O)c1ccc2nc(-c3cc(Cl)cc(Cl)c3)oc2c1 [Compound 15, 2-aminoethyl 2-(3,5-dichlorophenyl)benzo[d]oxazole-6-carboxylate]",A (A is <25%)
10,"CC(C)(C)OC(=O)N1CCC(OC(=O)c2ccc3nc(-c4cc(Cl)cc(Cl)c4)oc3c2)C1 (stereo not shown) [Compound 16, 1-(tert-butoxycarbonyl)pyrrolidin-3-yl 2-(3,5-dichlorophenyl) benzo[d]oxazole-6-carboxylate]",B (B is ≥25 to <50%)
11,"CC(C)(C)OC(=O)N[C@@H](Cc1ccc(OC(=O)c2ccc3nc(-c4cc(Cl)cc(Cl)c4)oc3c2)cc1)C(=O)OCc1ccccc1 [Compound 18, (S)-4-(3-(benzyloxy)-2-((tert-butoxycarbonyl)amino)-3-oxopropyl) phenyl 2-(3,5-dichlorophenyl)benzo[d]oxazole-6-carboxylate]",C (C is ≥50 to <75%)
12,"CC(C)(C)OC(=O)N[C@@H](Cc1cccc(OC(=O)c2ccc3nc(-c4cc(Cl)cc(Cl)c4)oc3c2)c1)C(=O)OCc1ccccc1 [Compound 19, (S)-3-(3-(benzyloxy)-2-((tert-butoxycarbonyl)amino)-3-oxopropyl) phenyl 2-(3,5-dichlorophenyl)benzo[d]oxazole-6-carboxylate]",B (B is ≥25 to <50%)
13,"CC(C)(C)OC(=O)N[C@@H](Cc1cccc(OC(=O)c2ccc3nc(-c4cc(Cl)cc(Cl)c4)oc3c2)c1)C(=O)O [Compound 20, (S)-2-((tert-butoxycarbonyl)amino)-3-(3-((2-(3,5-dichlorophenyl)benzo [d]oxazole-6-carbonyl)oxy)phenyl)propanoic acid]",B (B is ≥25 to <50%)
14,"CC(C)(C)OC(=O)N[C@@H](Cc1ccc(OC(=O)c2ccc3nc(-c4cc(Cl)cc(Cl)c4)oc3c2)cc1)C(=O)O [Compound 22, (S)-2-((tert-butoxycarbonyl)amino)-3-(4-((2-(3,5-dichlorophenyl)benzo[d]oxazole-6-carbonyl)oxy)phenyl)propanoic acid]",D (D is ≥75%)
15,"CC(C)(C)OC(=O)NCCCOC(=O)c1ccc2nc(-c3cc(Cl)cc(Cl)c3)oc2c1 [Compound 31, 3-((tert-butoxycarbonyl)amino)propyl 2-(3,5-dichlorophenyl) benzo [d]oxazole-6-carboxylate]",C (C is ≥50 to <75%)

# Reference: patent US20230287021A1, “COMPOUNDS, COMPOSITIONS AND METHODS FOR STABILIZING TRANSTHYRETIN AND INHIBITING TRANSTHYRETIN MISFOLDING” (Protego Biopharma, Inc., priority 2020, published 2023)
